Data as given in publication PMC5454942, “The Potential of Triterpenoids from Loquat Leaves (Eriobotrya japonica) for Prevention and Treatment of Skin Disorder” (International Journal of Molecular Sciences, 2017).
In brackets after ≈: the same amount, converted by molar mass. Several values for one entry are separate records, joined by “and”; a condition that tells them apart may be missing. Equal values may be shown once. Read-outs that look alike come from different tables or passages of the source.

Key:
Propionibacterium acnes = experiment: Anti-bacterial assay (growth inhibition, MIC/MBC by broth microdilution); type: cell-based; settings: for MBC / MIC / inhibition at 100 µg/mL: Cutibacterium acnes; for inhibition at 100 µg/mL: read-out: Inhibition Rate (P. acnes growth); for activity against P. acnes (in words): at their maximum solubility
Procedure, shortened: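 P. acnes NBRC 107605 grown in GAM broth 30 h at 37 °C, then used at 10^5 CFU/mL. Compounds in DMSO incubated with bacteria 30 h at 37 °C; growth read at 630 nm. MIC and MBC by broth microdilution.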

[1] = system: inflammation induced by 12-O-tetradecanoylphorbol-13-acetate (TPA); set-up: method as in PMID 16204964, PMID 14745168; settings: mice; cited from earlier work
[2] = Cell viability of RBL-2H3 cells (parallel MTT); type: cell-based, rat; settings: rat; 25 μg/ml, RBL-2H3 cells; read-out: Cell viability
Procedure, shortened: (§1)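 IgE-sensitized RBL-2H3 cells (0.5 μg/mL anti-DNP IgE, 24 h) treated with sample 30 min in Tyrode buffer, then challenged 1 h with 50 μg/mL DNP-BSA. Released β-hexosaminidase measured with 2 mM p-nitrophenyl-N-acetyl-β-glucosaminide, 3 h, A405; viability by parallel MTT.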

NHDF-Ad cells = experiment: Hyaluronic acid production assay (ELISA, with MTT); type: cell-based, human; settings: fold of control
Procedure: NHDF-Ad cells were seeded on 96-well plates (5 × 10^3 cells/well) for 24 h before the treatment. The medium was replaced with a mixture of 1 μL of sample solution (DMSO < 0.5% per well) and 99 μL of DMEM supplemented with 0.5% FBS. After 72 h cultivation, the amount of hyaluronic acid in the medium was measured using a QnE Hyaluronic acid ELISA kit (Biotech Trading Partners, Encinitas, CA, USA). The amount of hyaluronic acid production was quantitatively calculated from the standard curve. Cell viability was measured by the MTT method, and ascorbic acid was used as a positive control.

[3] = system: Epstein–Barr virus early antigen; set-up: method as in PMID 16204964, PMID 14745168; settings: cited from earlier work
B16 melanoma cells [4] = experiment: Anti-melanogenesis assay (melanin content); type: cell-based, mouse; settings: for inhibition at 1 µg/mL: 1 μg/ml; for inhibition at 2.5 µg/mL: 2.5 μg/ml; for IC50 / S.I (selectivity index, CC50 value/IC50 value): B16 melanoma cells; for inhibition at 5 µg/mL: 5 μg/ml; for inhibition at 10 µg/mL: 10 μg/ml
Procedure, shortened: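 B16 cells treated with samples in DMSO (<0.2%) for 48 h, then re-dosed in fresh medium for a further 24 h; arbutin served as positive control. Melanin content read at 405 nm and viability by MTT at 570 nm.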

[5] = Cell viability of B16 melanoma cells (MTT); settings: mouse
RBL-2H3 cells = experiment: β-hexosaminidase release from IgE-stimulated RBL-2H3 mast cells; type: cell-based, rat
Procedure, shortened: as §1

mushroom tyrosinase = experiment: Tyrosinase inhibition assay; type: biochemical; settings: for inhibitory effect on tyrosinase (in words): L-DOPA as substrate; for inhibitory activity on tyrosinase (in words): L-tyrosine as substrate, relatively high concentrations
Procedure: Tyrosinase inhibition activity was evaluated by using L-tyrosine and L-DOPA as substrates, as described. Briefly, 333 μL of 2.5 mM L-tyrosine or L-DOPA solution (Sigma-Aldrich) was mixed with 600 μL of 0.1 M phosphate buffer (pH 6.8) and incubated at 25 °C. Then, 33 μL of the sample solution (dissolved in DMSO in various concentrations) and 33 μL of 1380 units/mL mushroom tyrosinase (Sigma-Aldrich) were added to the mixture. The optical density was measured at 475 nm up to the appropriate time. Kojic acid (Sigma-Aldrich) was used as the positive control; the final concentration is 3.3 μg/mL.

B16 melanoma cells [6] = experiment: Cell viability of B16 melanoma cells (MTT); settings: B16 cells
[7] = P. acnes, broth microdilution, read-out: MBC
[8] = P. acnes, broth microdilution, read-out: MIC
[9] = Mus musculus, B16 cells, read-out: Inhibition rate (100% − melanin synthesis)
[10] = Mus musculus, read-out: IC50 (melanin synthesis)
[11] = Mus musculus, read-out: IC50 melanin
[12] = Rattus norvegicus, RBL-2H3, 25 μg/mL, read-out: Inhibition Rate (β-hexosaminidase release)
[13] = Rattus norvegicus, RBL-2H3, read-out: Inhibition Rate (β-hexosaminidase release)

Row | SMILES | MBC (Propionibacterium acnes; [7]) [µg/mL] | MIC (Propionibacterium acnes; [8]) [µg/mL] | inhibition at 100 µg/mL (Propionibacterium acnes; concentration 100 μg/mL) [%] | activity against P. acnes (in words) (Propionibacterium acnes) | inhibitory activity against TPA-induced inflammation (in words) [1] | viability at 25 μg/ml [2] [%] | inhibitory activity against TPA-induced Epstein–Barr virus early antigen activation (in words) [3] | inhibition at 1 µg/mL (B16 melanoma cells [4]; [9]) [%] | inhibition at 2.5 µg/mL (B16 melanoma cells [4]; [9]) [%] | IC50 (B16 melanoma cells [4]; [10]) [µM] | IC50 (B16 melanoma cells [4]; [11]) [µg/mL] | CC50 at 72 h ([5]; B16 melanoma cells) | inhibition at 25 µg/mL (RBL-2H3 cells; [12]) [%] | S.I (selectivity index, CC50 value/IC50 value) (B16 melanoma cells [4]) | inhibition at 5 µg/mL (B16 melanoma cells [4]; [9]) [%] | inhibition at 10 µg/mL (B16 melanoma cells [4]; [9]) [%] | Inhibition rate (100% − cell viability) (B16 melanoma cells [6]; 1 μg/ml) [%] | Inhibition rate (100% − cell viability) (B16 melanoma cells [6]; 2.5 μg/ml) [%] | Inhibition rate (100% − cell viability) (B16 melanoma cells [6]; 5 μg/ml) [%] | Inhibition rate (100% − cell viability) (B16 melanoma cells [6]; 10 μg/ml) [%] | other results
1 | C[C@H]1[C@H](C)CC[C@]2(C(=O)O)CC[C@]3(C)C(=CC[C@@H]4[C@@]5(C)CC[C@H](O)C(C)(C)[C@@H]5CC[C@]43C)[C@H]12 [Compound 1, Ursolic acid] | 100 (≈ 219 µM) | 50 (≈ 109 µM) | 109.8 ± 0.5 | active | significant inhibitory activity | 103 ± 5.3 | significant inhibitory activity | 24 ± 0.8 | 58.5 ± 3.2 | 4.8 | 2.2 | 4.3 µg/mL and 9.4 µM | 72.5 ± 3 |  |  |  |  |  |  |  | HA/CV value (hyaluronic acid %/cell viability %) (NHDF-Ad cells; 5 μg/mL): 4.7; inhibition at 0.5 µg/mL (B16 melanoma cells [4]; Mus musculus, 0.5 μg/ml, B16 cells, read-out: Inhibition rate (100% − melanin synthesis)): 4.2 ± 1.7%; inhibition at 5 µg/mL (RBL-2H3 cells; Rattus norvegicus, RBL-2H3, 5 μg/mL, read-out: Inhibition Rate (β-hexosaminidase release)): 0%; inhibition at 12.5 µg/mL (RBL-2H3 cells; Rattus norvegicus, RBL-2H3, 12.5 μg/mL, read-out: Inhibition Rate (β-hexosaminidase release)): 37.6 ± 3%; IC50 (RBL-2H3 cells; Rattus norvegicus, IgE-stimulated RBL-2H3 cells, read-out: IC50 (β-hexosaminidase release)): 39.5 µM; inhibitory effect on tyrosinase (in words) (mushroom tyrosinase): no inhibitory effect; inhibitory activity on tyrosinase (in words) (mushroom tyrosinase): moderate inhibitory activity
2 | CC1(C)CC[C@]2(C(=O)O)CC[C@]3(C)C(=CC[C@@H]4[C@@]5(C)C[C@@H](O)[C@H](O)C(C)(C)[C@@H]5CC[C@]43C)[C@@H]2C1 [Compound 7, Maslinic acid] |  |  |  | active | significant inhibitory activity | 84.4 | significant inhibitory activity | 2.8 ± 1.1 | 12.2 ± 1.9 | 18.5 | 8.7 |  |  | > 1.0 | 47.5 ± 0.4 | 54.5 ± 3 | 2.5 ± 2.2 | 3.2 ± 4.8 | 42.2 ± 4.0 | 44.3 ± 6.4 | MBC (Propionibacterium acnes): 150 µg/mL (≈ 317 µM); MIC (Propionibacterium acnes): 50 µg/mL (≈ 106 µM); inhibition at 100 µg/mL (Propionibacterium acnes): 104 ± 3.1%; inhibition at 20 µg/mL (B16 melanoma cells [4]; Mus musculus, 20 μg/ml, B16 cells, read-out: Inhibition rate (100% − melanin synthesis)): 65.1 ± 0.4%; CC50 at 72 h [5]: 13.8 µg/mL and 29.3 µM; Inhibition rate (100% − cell viability) (B16 melanoma cells [6]; 20 μg/ml): 76.5± 3.0%; IC50 (RBL-2H3 cells; Rattus norvegicus, RBL-2H3, read-out: IC50 (β-hexosaminidase release), IgE-stimulated RBL-2H3 cells): 22.9 µM; inhibition at 5 µg/mL (RBL-2H3 cells; [13]): 9.5 ± 6.6%; inhibition at 12.5 µg/mL (RBL-2H3 cells; [13]): 58.2 ± 3%; inhibition at 25 µg/mL (RBL-2H3 cells; [13]): 66 ± 2.6%; IC50 (RBL-2H3 cells; read-out: IC50 (β-hexosaminidase release), IgE-stimulated RBL-2H3 cells): 22.8 µM; inhibitory effect on tyrosinase (in words) (mushroom tyrosinase): no inhibitory effect; inhibitory activity on tyrosinase (in words) (mushroom tyrosinase): moderate inhibitory activity
3 | C[C@H]1[C@H](C)CC[C@]2(C(=O)O)CC[C@]3(C)C(=CC[C@@H]4[C@@]5(C)C[C@@H](O)[C@H](O)C(C)(C)[C@@H]5CC[C@]43C)[C@H]12 [Compound 8, Corosolic acid] | 100 (≈ 212 µM) | 50 (≈ 106 µM) | 105.9 ± 0.4 | active |  | 80.4 ± 1.6 |  | 3.4 ± 5.1 | 0.5 ± 4.1 | 18.7 | 8.8 | 12.2 µg/mL and 25.8 µM | 36.1 ± 6.7 | 1.4 | 17.4 ± 5.5 | 59.8 ± 1.9 | 0.0 ± 3.5 | 0.0 ± 3.8 | 0.3 ± 4.0 | 39.3 ± 4.7 | HA/CV value (hyaluronic acid %/cell viability %) (NHDF-Ad cells; 10 μg/mL): 5.9; Inhibition rate (100% − cell viability) (B16 melanoma cells [6]; 20 μg/ml): 94.8± 0.3%
4 | C[C@@H]1CC[C@]2(C(=O)O)CC[C@]3(C)C(=CC[C@@H]4[C@@]5(C)CC[C@H](O)C(C)(C)[C@@H]5CC[C@]43C)[C@@H]2[C@]1(C)O [Compound 10, Pomolic acid] |  |  | 84.4 ± 1.2 | active |  | 77 ± 5.3 |  | 3.2 ± 8.2 | 28.4 ± 1.5 | 14 | 6.6 | 4.9 µg/mL and 10.5 µM | 22.4 ± 1.9 | 0.8 | 43.9 ± 1.9 | 55.8 ± 8.1 | 1.9 ± 5.4 | 0.0 ± 6.1 | 50.9 ± 4.4 | 68.4 ± 1.5 | HA/CV value (hyaluronic acid %/cell viability %) (NHDF-Ad cells; 10 μg/mL): 5.8
